In PMC12040169 (PLOS Biology, 2025):

Assay: in vitro
Details: human, hela cells, % viability

SMILES	viability at 28.5 h, 10 µM [%]
CCc1ccc(C(=O)NC(Cc2c[nH]c3ccccc23)C(=O)O)cc1 (stereo not drawn) [CBK269556]	101
Cn1c(=O)c2c(nc(CN3CCN(c4ccccc4)CC3)n2Cc2ccccc2)n(C)c1=O [CBK269557]	85.1
O=C(C1CCN(S(=O)(=O)c2ccc3ccccc3c2)CC1)N1CCC(Cc2ccccc2)CC1 [CBK269558]	83
CNc1nc(SCC(=O)Nc2ccc(Cl)c(Cl)c2)nc(N2CCOCC2)n1 [CBK269559]	85.3
Cn1c(=O)c2c(nc(CN3CCOCC3)n2CCN2CCOCC2)n(C)c1=O [CBK269560]	106
COc1ccccc1NC(=O)C(c1ccccc1)N1CCOCC1 (stereo not drawn) [CBK269561]	107
Clc1ccc(-c2ccc(CNCCCN3CCOCC3)o2)cc1 [CBK269562C]	90.5
Cn1c(=O)c2c(nc(CN3CCCCC3)n2CC(=O)c2ccccc2)n(C)c1=O [CBK269563]	87.1
c1ccc(-c2nc3sc4c(ncn5cnnc45)c3c3c2CCC3)cc1 [CBK269566]	84.3
COc1cc(CNC23CC4CC(CC(C4)C2)C3)c(Cl)cc1OCC(=O)O [CBK269567]	87.6
COc1ccc(Cl)cc1S(=O)(=O)N1CCC(C(N)=O)(N2CCCCC2)CC1 [CBK269571]	97.9
Cc1ccc(C(=O)C2=C(O)C(=O)N(CCCN(C)C)C2c2ccccn2)o1 (stereo not drawn) [CBK269575]	89.1
O=C(C1=C(O)C(=O)N(CCN2CCOCC2)C1c1ccccn1)c1cc2ccccc2o1 (stereo not drawn) [CBK269576]	107
CN1CCN(Cc2nc3c([nH]2)c(=O)n(C)c(=O)n3C)CC1 [CBK269578]	104
CC(C)CNc1nc(SCC(N)=O)nc(N(C)C)n1 [CBK269579]	93.8
CC(=O)CSc1nc2c(c(=O)n(C)c(=O)n2C)n1CCCc1ccccc1 [CBK269581]	84.6
Cn1c(=O)c2c(nc(CN3CCN(Cc4ccccc4)CC3)n2CCCc2ccccc2)n(C)c1=O [CBK269582]	90.9
Cc1ccc(Cn2c(CN3CCOCC3)nc3c2c(=O)n(C)c(=O)n3C)cc1 [CBK269583]	91.1
CC(C)(C)NC(=O)Cn1cnc2c(cnn2-c2ccccc2)c1=O [CBK269586]	91.6
N#Cc1ccccc1CSc1nc2ccc([N+](=O)[O-])cc2[nH]1 [CBK269589]	84.5
Cc1ccc2cc(CN(CC(C)C)S(C)(=O)=O)c(O)nc2c1 [CBK269593]	101

SMILES	viability at 28.5 h, 10 µM [%]
COc1cc(NC(=O)c2cc3c4c(sc3nc2N)CN(C)CC4)c(OC)c(OC)c1 [CBK269597]	77.1
COC(=O)Cn1c(CN2CCN(c3cccc(Cl)c3)CC2)nc2c1c(=O)n(C)c(=O)n2C [CBK269598]	86.7
O=C(Nc1sc2c(c1C(=O)NCc1cccnc1)CCC2)c1ccco1 [CBK269599]	81
CS(=O)(=O)c1ncc(Cl)c(C(=O)N(Cc2ccccc2)Cc2ccco2)n1 [CBK269603]	29.3
CCCC(=O)Nc1cccc(NC(=O)c2nc[nH]n2)c1 [CBK269604]	104
CCOC(=O)Cn1nc([N+](=O)[O-])c(Cl)c1C [CBK269605]	86.4
COc1ccccc1N1CC(C(=O)Nc2ccc(C(=O)O)cc2)CC1=O (stereo not drawn) [CBK269606]	84.9
CCC(=O)Nc1nonc1-c1nc2ccccc2n1Cc1ccc(F)cc1Cl [CBK269608]	84.1
CCN1CCN(S(=O)(=O)c2cccc3c(S(=O)(=O)N4CCN(CC)CC4)cccc23)CC1 [CBK269611]	90.4
Cc1ccc(S(=O)(=O)c2nc(NCCN3CCOCC3)sc2Cl)cc1 [CBK269615]	79.7
Cc1cc(OC(C)C(=O)NCc2ccccn2)ccc1Cl (stereo not drawn) [CBK269617]	110
O=C(O)c1ccc(CNCc2ccc(-c3ccc(Cl)cc3)o2)cc1 [CBK269619C]	94.7
O=C(Nc1cccnc1)C1CCN(S(=O)(=O)c2ccc(Oc3ccccc3)cc2)CC1 [CBK269621]	81.8
CC(=O)N1CCN(c2ccc(NC(=O)c3cccc4c(Br)cccc34)cc2Cl)CC1 [CBK269624]	93.8
CN1CCN(C(=O)CN(CC(=O)N2CCN(C)CC2)S(=O)(=O)c2ccc(Cl)cc2)CC1 [CBK269627]	96.6
Cn1c(COc2ccccc2)nnc1SCc1nnc(-c2ccccc2)o1 [CBK269628]	94.1
CN1CCN(CCCOc2ccccc2OCc2ccccc2)CC1 [CBK269630C]	90.4
Cc1ccc(SCCN2CCN(C)CC2)cc1 [CBK269631C]	89.2
Cc1ccnc(SCc2c(Cl)cccc2[N+](=O)[O-])n1 [CBK269632]	86
COc1ccc(CNc2cccc(C(=O)O)c2C)cc1OC [CBK269634]	109
CC(Oc1ccccc1)C(=O)Nc1ccccc1NC(=O)c1ccco1 (stereo not drawn) [CBK269636]	88.4

SMILES	viability at 28.5 h, 10 µM [%]
Cn1c(SCc2nnc(-c3ccccc3)o2)nnc1C(O)c1ccccc1 (stereo not drawn) [CBK269640]	92.3
COC(=O)c1cccc(COC(=O)c2ccc3nc(C)c(C)nc3c2)c1 [CBK269641]	95.2
CC(NC(=O)c1ccccc1)c1nnc(SCC(=O)N2CCOCC2)n1C (stereo not drawn) [CBK269647]	86
COc1ccc(C)cc1S(=O)(=O)N(CC(=O)O)c1ccc(C)c(Cl)c1 [CBK269655]	83.3
Cc1ccc(S(=O)(=O)N2CCOCC2)cc1C(=O)NCCc1ccccc1 [CBK269658]	99
Cc1cccc(-c2nnc(-c3cccc(NC(=O)COc4ccccc4)c3)o2)c1 [CBK269659]	95.8
COc1ccc(NC(=O)c2ccc3c(c2)C(=O)N(Cc2ccncc2)C3=O)cc1 [CBK269660]	97.7
Cc1nc2ccc(C(=O)OCc3ccc(S(=O)(=O)Cc4ccccc4)cc3)cc2nc1C [CBK269661]	97.6
O=C(Nc1cccnc1)c1cccnc1C(=O)O [CBK269663]	90.1
O=C(Nc1ccc(S(=O)(=O)NCc2ccncc2)cc1)c1ccccc1Cl [CBK269664]	91.5
Cc1cc(Cl)cc(Br)c1OCCN1CCN(C)CC1 [CBK269668C]	93.9
FC(F)(F)c1cccc(OCCN2CCOCC2)c1 [CBK269669C]	96.8
COc1ccc([N+](=O)[O-])cc1CSc1nnc(-c2ccco2)n1C [CBK269671]	89.3
OCc1ccc(OCCCOc2cccc3cccnc23)cc1 [CBK269674]	85.8
Cc1cc(C)cc(OCC(=O)Nc2ccc3[nH]c(=O)[nH]c3c2)c1 [CBK269676]	99.5
Cc1ccc(S(=O)(=O)N2CCOCC2)cc1C(=O)NCc1ccco1 [CBK269677]	102
CCn1c(SCC(=O)Nc2cc(Cl)ccc2O)nnc1-c1ccccc1 [CBK269680]	87.4
COc1cc(CNCCO)cc(Br)c1OCc1cccnc1 [CBK269681C]	100
COc1cccc(CNc2ccc3c4c(cccc24)CC3)c1OC [CBK269688]	92.5
CN1CCN(c2ccc(NC(=O)c3cccc(-c4cc5ccccc5oc4=O)c3)cc2Cl)CC1 [CBK269689]	83.5
CN1CCN(CCCCOc2ccc(Cc3ccccc3)cc2)CC1 [CBK269692C]	91.6
